Test results from paper PMC4965013, “Open Source Drug Discovery with the Malaria Box Compound Collection for Neglected Diseases and Beyond” (PLoS Pathogens, 2016).
Where two headings read alike, the source gives them in different places.

Experiments:
[1] = tested on: P. falciparum NF54Pfs16 gametocytes stage IV-V; details: cited from earlier work
[2] = tested on: P. falciparum 3D7, HB3, Dd2, W2, K1, FCR3; experiment: Asexual EC50 image assay, six strains, Ayong; assay type: cell-based; details: Plasmodium falciparum
[3] = tested on: P. falciparum NF54Pfs16 gametocytes stage I-III; details: ref [61]; read-out: gametocyte early stage (I-III) luciferase EC50; cited from earlier work
[4] = tested on: P. falciparum NF54 GFP-Pfs16 gametocytes stage IV-V; details: ref [64]; read-out: gametocyte late stage (IV-V) GFP-MTR EC50; cited from earlier work
P. falciparum 3D7 or K1 = experiment: Asexual Blood Stage Imaging Assay (DAPI) V. Avery; assay type: cell-based; details: Plasmodium falciparum
P. falciparum HB3 = experiment: Stage-specificity / mitochondrial integrity image assay Ayong; assay type: cell-based; details: 10µM
P. falciparum FCR3 = experiment: FCR3 SYBR Green I assay Horii; assay type: cell-based; details: Plasmodium falciparum, FCR3, 72 h; read-out: P. falciparum FCR3 asexual blood stage IC50 Horii
Procedure: Column T: Horii group (data presented first in this paper). IC50 against asexual blood stage P. falciparum FCR3. Methods: For measurement of anti-Plasmodium activities, P. falciparum FCR3 strain was cultured in the RPMI 1640 medium supplemented with 10% human type A serum from in-house volunteers at 37°C, 5% O2 and 5% CO2 (0.5% parasitemia and 2% hematocrit) for 72 h in the presence of the compounds (DMSO final concentration, 0.25%). The growth inhibition of P. falciparum was determined using a SYBR Green I assay. Lysis buffer (20 mM Tris (pH 7.5), 5 mM EDTA, 0.008% (w/v) saponin and 0.08% (v/v) Triton X-100) containing SYBR Green I was added to each well and incubated at room temperature and dark condition for 1-5 hours. After the incubation, amounts of parasite DNA were measured as fluorescence at 485 nm of excitation and 530 nm of emission. An unpublished antimalarial compound was used as positive control in the assay.

[5] = tested on: P. falciparum NF54 GFP-Pfs16 gametocytes stage I-III; details: ref [64]; read-out: gametocyte early stage (I-III) GFP-MTR EC50; cited from earlier work
P. falciparum Dd2 = experiment: Malaria Sybr Green I Fluorescence assay Dd2 Horrocks; assay type: cell-based; details: Plasmodium falciparum, DD2, 48 h; read-out: P. falciparum Dd2 asexual blood stage EC50 Horrocks
Procedure: Column S: Horrocks group (data presented first in this paper). Asexual Dd2 inhibition of growth (IC50s): IC50 for the Dd2 clone of Plasmodium falciparum were determined using the Malaria Sybr Green I Fluorescence assay. Drug assays were initiated using a 2% trophozoite stage parasitaemia and 2% hematocrit and fluorescence measured after 48 h as fully described in Hasenkamp et al.[53]. Log dose-response curves were plotted in GraphPad Prism (v5.0). The controls for Dd2 using our 48hr Sybr Green I assay were (rounded to nearest nM): Chloroquine 209nM, Mefloquine 11nM, Quinine 246nM, Dihydroartemisinin 4nM, Artemether 10nM, Atovaquone 3nM.

P. falciparum 3D7 = experiment: [3H]-hypoxanthine growth inhibition, modified HCO3- or O2; assay type: cell-based; details: for IC50: Plasmodium falciparum
T. b. brucei Squib 427 = experiment: T. b. brucei growth Maes; assay type: cell-based, Trypanosoma brucei brucei; details: non-toxic, positive in all T. brucei screens
P. falciparum = experiment: EC50 listed in S2 Table Metabolomics (used to set the concentration tested); assay type: cell-based; details: Plasmodium falciparum; EC50 used for Factor_XEC50 in metabolomics; read-out: EC50_nM
[6] = tested on: P. falciparum 3D7 trophozoites; experiment: Metabolomic fingerprint profiling LC-MS; assay type: cell-based, Plasmodium falciparum; set-up: UDP-D-glucose / ADP-D-glucose: unit not given here
[7] = read-out: P. falciparum 3D7 asexual blood stage EC50 (Image) V. Avery
[8] = read-out: P. falciparum K1 asexual blood stage EC50 (Image) V. Avery
[9] = metabolite level change after treatment

## C[C@@H]1CC[C@H]2[C@@H](C)C(=O)O[C@@H]3O[C@@]4(C)CC[C@@H]1[C@]32OO4 [Artemisinin, reference compound]
[1]; ref [62], read-out: gametocyte late stage (IV-V) luciferase EC50
  EC50: 0.026 µM
[2]; read-out: P. falciparum 3D7 asexual blood stage EC50 (Image) Ayong
  EC50: 0.0117 ± 0.0014 µM
[2]; read-out: P. falciparum Dd2 asexual blood stage EC50 (Image) Ayong
  EC50: 0.0053 ± 0.0012 µM
[2]; read-out: P. falciparum FCR3 asexual blood stage EC50 (Image) Ayong
  EC50: 0.005 ± 0.0004 µM
[2]; read-out: P. falciparum HB3 asexual blood stage EC50 (Image) Ayong
  EC50: 0.0086 ± 0.0012 µM
[2]; read-out: P. falciparum K1 asexual blood stage EC50 (Image) Ayong
  EC50: 0.0035 ± 0.0004 µM
[2]; read-out: P. falciparum W2 asexual blood stage EC50 (Image) Ayong
  EC50: 0.0057 ± 0.0005 µM
[3]
  EC50: 0.013 µM
[4]
  EC50: 0.005 µM
P. falciparum 3D7 or K1; [7]
  EC50: 0.001 µM
P. falciparum 3D7 or K1; [8]
  EC50: 0.001 µM
P. falciparum HB3
  Effects on asexual life cycle progression (treatment at ER, LR, T, S; merozoites; mitochondrial integrity): LR-X-S-X-o-o
P. falciparum FCR3
  IC50: 0.047 µM
[5]
  EC50: 0.001 µM

## CCN(CC)CCCC(C)Nc1ccnc2cc(Cl)ccc12 (stereo not shown) [Chloroquine, reference compound]
[1]; ref [69], read-out: late stage gametocyte luciferase, no inhibition up to
  IC50: > 10 µM
P. falciparum Dd2
  EC50: 0.209 µM
P. falciparum 3D7
  fold change (IC50normal/ IC50hypoxia): 1.6
  fold change (IC50reduced/IC50normal): 2.3
P. falciparum 3D7; 3D7, read-out: P. falciparum 3D7 IC50 1% O2, 1% O2 hypoxia
  IC50: 0.007 µM
P. falciparum 3D7; 3D7, read-out: P. falciparum 3D7 IC50 5% O2
  IC50: 0.011 µM
P. falciparum 3D7; 3D7, read-out: P. falciparum 3D7 IC50 HCO3- (2g/L), standard media
  IC50: 0.016 µM
P. falciparum 3D7; 3D7, HCO3- reduced media, read-out: P. falciparum 3D7 IC50 HCO3- reduced
  IC50: 0.036 µM
[3]
  EC50: 0.077 µM
P. falciparum 3D7 or K1; [7]
  EC50: 0.003 µM
P. falciparum 3D7 or K1; [8]
  EC50: 0.199 µM
P. falciparum HB3
  Effects on asexual life cycle progression (treatment at ER, LR, T, S; merozoites; mitochondrial integrity): LR-X-S-o-o-o
P. falciparum FCR3
  IC50: 0.125 µM

## CN(C)CCCNCc1ccc(-c2ccc(F)c(Cl)c2)o1 [MMV020505]
T. b. brucei Squib 427
  Selectivity Index T. brucei screens: > 10

## CCN1CCN(Cc2ccc(NC(=O)c3cc4ccc5cccnc5c4[nH]3)cc2)CC1 [MMV020548]
P. falciparum
  EC50: 0.361 µM
[6]; S2 Table Metabolomics, metabolite Acetyllysine
  Acetyllysine: -1.074
[6]; S2 Table Metabolomics, metabolite N-acetyl-L-ornithine
  N-acetyl-L-ornithine: -0.7002
[6]; S2 Table Metabolomics, metabolite N-carbamoyl-L-aspartate
  N-carbamoyl-L-aspartate: 0.01627
[6]; S2 Table Metabolomics, metabolite NADPH
  NADPH: -0.7588
[6]; S2 Table Metabolomics, metabolite dAMP
  dAMP: 0.7039
[6]; S2 Table Metabolomics, metabolite dCMP
  dCMP: 0.2246
[6]; S2 Table Metabolomics, metabolite dTDP
  dTDP: 0.1022
[6]; S2 Table Metabolomics, metabolite dTMP
  dTMP: 0.01221
[6]; S2 Table Metabolomics, metabolite dTTP
  dTTP: -0.4268
[6]; S2 Table Metabolomics, metabolite dihydroorotate
  dihydroorotate: 0.1148
[6]; S2 Table Metabolomics, metabolite orotate
  orotate: 0.2392
[6]; S2 Table Metabolomics, peptide DLH
  DLH: -1.531
[6]; S2 Table Metabolomics, peptide DLS/SDL/SID
  DLS/SDL/SID: -1.1
[6]; S2 Table Metabolomics, peptide PD
  PD: -1.147
[6]; S2 Table Metabolomics, peptide PEE
  PEE: -0.7652
[6]; S2 Table Metabolomics, peptide PVNF
  PVNF: -1.327
[6]; metabolite 3-phosphoglycerate, S2 Table Metabolomics
  3-phosphoglycerate: -0.1406
[6]; metabolite ADP-D-glucose, S2 Table Metabolomics
  ADP-D-glucose: 0.03533
[6]; metabolite ATP, S2 Table Metabolomics
  ATP: -0.3247
[6]; metabolite CDP, S2 Table Metabolomics, change in metabolite level after compound treatment
  CDP: -0.06734
[6]; metabolite D-sedoheptulose-1/7-phosphate, S2 Table Metabolomics, change in metabolite level after compound treatment
  D-sedoheptulose-1/7-phosphate: -0.2201
[6]; metabolite FAD, S2 Table Metabolomics
  FAD: -0.1695
[6]; metabolite GMP, S2 Table Metabolomics, change in metabolite level after compound treatment
  GMP: 0.03987
[6]; metabolite NAD+, S2 Table Metabolomics
  NAD+: -0.004207
[6]; metabolite NADP+, S2 Table Metabolomics
  NADP+: -0.07599
[6]; metabolite Octoluse Bisphosphate, S2 Table Metabolomics, change in metabolite level after compound treatment
  Octoluse Bisphosphate: -0.5083
[6]; metabolite Pyroglutamic acid, S2 Table Metabolomics
  Pyroglutamic acid: 0.8773
[6]; metabolite UDP-D-glucose, S2 Table Metabolomics
  UDP-D-glucose: -0.04378
[6]; metabolite UDP-D-glucuronate, S2 Table Metabolomics
  UDP-D-glucuronate: -0.2395
[6]; metabolite UDP-N-acetyl-glucosamine, S2 Table Metabolomics
  UDP-N-acetyl-glucosamine: -0.0477
[6]; metabolite UDP, S2 Table Metabolomics, change in metabolite level after compound treatment
  UDP: -0.1277
[6]; metabolite UMP, S2 Table Metabolomics, change in metabolite level after compound treatment
  UMP: -0.04731
[6]; metabolite UTP, S2 Table Metabolomics, change in metabolite level after compound treatment
  UTP: -0.476
[6]; metabolite a-ketoglutarate, S2 Table Metabolomics
  a-ketoglutarate: 0.2925
[6]; metabolite citrate/isocitrate, S2 Table Metabolomics, change in metabolite level after compound treatment
  citrate/isocitrate: 0.7028
[6]; metabolite cytidine, S2 Table Metabolomics
  cytidine: 0.2393
[6]; metabolite dATP, S2 Table Metabolomics
  dATP: -0.2064
[6]; metabolite dGMP/AMP, S2 Table Metabolomics, change in metabolite level after compound treatment
  dGMP/AMP: 0.2962
[6]; metabolite fumarate, S2 Table Metabolomics, change in metabolite level after compound treatment
  fumarate: -0.1605
[6]; metabolite glucose-1/6-phosphate, S2 Table Metabolomics, change in metabolite level after compound treatment
  glucose-1/6-phosphate: -0.1021
[6]; metabolite glycerate, S2 Table Metabolomics, change in metabolite level after compound treatment
  glycerate: 0.2926
[6]; metabolite guanine, S2 Table Metabolomics, change in metabolite level after compound treatment
  guanine: 0.4901
[6]; metabolite guanosine, S2 Table Metabolomics, change in metabolite level after compound treatment
  guanosine: 0.1417
[6]; metabolite hypoxanthine, S2 Table Metabolomics
  hypoxanthine: 0.9061
[6]; metabolite indole, S2 Table Metabolomics
  indole: 0.3876
[6]; metabolite inosine, S2 Table Metabolomics, change in metabolite level after compound treatment
  inosine: 0.524
[6]; [9]
  2_3-Diphosphoglyceric acid: -0.4996
  4-phosphopantothenate: 0.07924
  6-phospho-D-gluconate: -0.3745
  FMN: -0.06134
  IMP: 0.03526
  Pyrophosphate: -0.5624
  Sedoheptoluse bisphosphate: -0.2788
  cyclic-AMP: -0.1988
  glutathione disulfide: -0.4809
  lactate: 0.3196
  myo-inositol: -0.02428
[6]; metabolite nicotinate, S2 Table Metabolomics
  nicotinate: 0.6741
[6]; metabolite ornithine, S2 Table Metabolomics
  ornithine: -0.3153
[6]; metabolite phosphoenolpyruvate, S2 Table Metabolomics
  phosphoenolpyruvate: 0.09829
[6]; metabolite pyruvate, S2 Table Metabolomics, change in metabolite level after compound treatment
  pyruvate: 0.858
[6]; metabolite ribose-phosphate, S2 Table Metabolomics
  ribose-phosphate: -0.1246
[6]; metabolite sarcosine/alanine, S2 Table Metabolomics, change in metabolite level after compound treatment
  sarcosine/alanine: 0.05828
[6]; metabolite sn-glycerol-3-phosphate, S2 Table Metabolomics
  sn-glycerol-3-phosphate: -0.07501
[6]; metabolite succinate/methylmalonic acid, S2 Table Metabolomics, change in metabolite level after compound treatment
  succinate/methylmalonic acid: -0.07231
[6]; metabolite uridine, S2 Table Metabolomics, change in metabolite level after compound treatment
  uridine: 0.7812
[6]; metabolite xanthosine, S2 Table Metabolomics, change in metabolite level after compound treatment
  xanthosine: 0.03293
T. b. brucei Squib 427
  Selectivity Index T. brucei screens: > 10
